The source of these data is patent publication US10357036B2, “Compounds for controlling arthropods” (priority 2015, dated 2019).

The test system of assay [1] is Ctenocephalides felis. Briefly: Ctenocephalides felis in vitro contact test with adult cat fleas. It is filed as in vivo. To be noted: application rate 5 μg/cm^2 (=500 g/ha); after 48 h; dead or moribund fleas. The protocol:
For the coating of the test tubes, 9 mg of active ingredient are first dissolved in 1 ml of acetone p.a. and then diluted to the desired concentration with acetone p.a. 250 μl of the solution are distributed homogeneously on the inner walls and the base of a 25 ml glass tube by turning and rocking on an orbital shaker (rocking rotation at 30 rpm for 2 h). With 900 ppm of active ingredient solution and internal surface area 44.7 cm^2, given homogeneous distribution, an area-based dose of 5 μg/cm^2 is achieved.
After the solvent has evaporated off, the tubes are populated with 5-10 adult cat fleas (Ctenocephalides felis), sealed with a perforated plastic lid and incubated in a horizontal position at room temperature and ambient humidity. After 48 h, efficacy is determined. To this end, the tubes are stood upright and the fleas are knocked to the base of the tube. Fleas which remain motionless at the base or move in an uncoordinated manner are considered to be dead or moribund.
100% efficacy means that all the fleas were dead or moribund. 0% efficacy means that no fleas were harmed.

The subject of a further assay is Rhipicephalus sanguineus. Briefly: Rhipicephalus sanguineus in vitro contact test with adult brown dog ticks. Conditions: application rate 5 μg/cm^2 (=500 g/ha); after 48 h; dead or moribund ticks. The assay is classed as in vivo. The method, boiled down:
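Efficacy, as % of ticks dead or moribund, was judged 48 h after placing 5-10 adult brown dog ticks in acetone-coated tubes (5 μg/cm^2 from 900 ppm) kept dark at room temperature. Ticks unable to climb away from a 45-50° C hotplate within 5 min counted as affected.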

The next assay deals with Boophilus microplus. Briefly: Boophilus microplus injection test. It is filed as in vivo. To be noted: 20 μg/animal; assessed after 7 days. The method, then: (§1) • Solvent: dimethyl sulfoxide
1 μl of the active ingredient solution is injected into the abdomen of 5 engorged adult female cattle ticks (Boophilus microplus). The animals are transferred into dishes and kept in a climate-controlled room.

Assay [2] deals with Ctenocephalides felis. Briefly: Ctenocephalides felis oral test. To be noted: 100 ppm in citrated cattle blood; after 2 days. The assay is classed as in vivo.
The subject of the next assay is Musca domestica. Briefly: Musca domestica test. It is filed as in vivo. Conditions: 100 ppm; adult houseflies; after 2 days. The protocol: as §1
To produce a suitable active ingredient formulation, 10 mg of active ingredient are mixed with 0.5 ml of dimethyl sulfoxide, and the concentrate is diluted with water to the desired concentration.
Vessels containing a sponge treated with sugar solution and the active ingredient formulation of the desired concentration are populated with 10 adult houseflies (Musca domestica).

Another assay relates to Myzus persicae. Briefly: Myzus persicae spray test (Chinese cabbage leaf discs). It is filed as in vivo. To be noted: 100 g/ha; after 6 days. The protocol:
(§2) After 6 days, the efficacy in % is determined.

In the next assay the test system is Spodoptera frugiperda. Briefly: Spodoptera frugiperda spray test. To be noted: 100 g/ha; after 7 days. It is filed as in vivo.
The subject of another assay is Tetranychus urticae. Put plainly: Tetranychus urticae spray test, OP-resistant (bean leaf discs). It is filed as in vivo. To be noted: 100 g/ha; after 6 days. The protocol:
as §2

The subject of a further assay is Phaedon cochleariae. Put plainly: Phaedon cochleariae spray test. Conditions: 100 g/ha; after 7 days.
Assay [3] deals with cattle ticks (Boophilus microplus) Parkhurst strain, SP-resistant. Briefly: Boophilus microplus dip test. It is filed as in vivo. Conditions: 100 ppm; assessed after 7 days. The protocol:
• Test animals: cattle ticks (Boophilus microplus) Parkhurst strain, SP-resistant • Solvent: dimethyl sulfoxide
10 mg of active ingredient are dissolved in 0.5 ml of dimethyl sulfoxide. To produce a suitable formulation, the active ingredient solution is diluted with water to the concentration desired in each case.
This active ingredient formulation is pipetted into tubes. 8-10 engorged adult female cattle ticks (Boophilus microplus) are transferred into a further tube with holes. The tube is immersed into the active ingredient formulation, and all the ticks are completely wetted. After the liquid has run out, the ticks are transferred on filter discs into plastic dishes and stored in a climate-controlled room.
Efficacy is assessed after 7 days by laying of fertile eggs. Eggs which are not visibly fertile are stored in a climate-controlled cabinet until the larvae hatch after about 42 days. An efficacy of 100% means that none of the ticks has laid any fertile eggs; 0% means that all the eggs are fertile.

On to `CCC(=O)NCc1cc(-c2cnn(-c3c(Cl)cc(C(F)(C(F)(F)F)C(F)(F)F)cc3C(F)(F)F)c2)ccc1C` [Ia-80], for which the efficacy is 100% in the assay on Ctenocephalides felis [1]; 100% in the assay on Rhipicephalus sanguineus; 90% in the assay on Myzus persicae; 100% in the assay with Spodoptera frugiperda; 100% in the assay with Tetranychus urticae; 83% in the assay on Phaedon cochleariae. Besides, in the assay with Boophilus microplus, the “efficacy (laying of fertile eggs)” value came out at 100%. Besides, the “efficacy (rate of extermination)” value in the assay on Ctenocephalides felis [2] and in the assay on Musca domestica was 100% in each case.

On to `CC(=O)NCc1c(F)ccc(-c2cnn(-c3c(Cl)cc(C(F)(C(F)(F)F)C(F)(F)F)cc3C(F)(F)F)c2)c1F` [Ia-147], for which the efficacy in the assay on Ctenocephalides felis [1] is on record as 100%; in the assay on Rhipicephalus sanguineus, 100%; in the assay with Myzus persicae, 90%; with Spodoptera frugiperda, 100%; in the assay on Tetranychus urticae, 100%; in the assay with Phaedon cochleariae, 100%. Moreover, the “efficacy (laying of fertile eggs)” value with Boophilus microplus is 100%. The “efficacy (rate of extermination)” value in the assay with Ctenocephalides felis [2] and in the assay with Musca domestica was 100% throughout.

For `CCC(=O)NCc1cccc(-c2cnn(-c3c(Cl)cc(C(F)(C(F)(F)F)C(F)(F)F)cc3Cl)c2)c1F` [Ia-152], the “efficacy (laying of fertile eggs)” value in the assay on Boophilus microplus was found to be 100%. The “efficacy (rate of extermination)” value with Ctenocephalides felis [2] and in the assay on Musca domestica was 100% in each case. Also, the efficacy with Myzus persicae, in the assay with Spodoptera frugiperda and with Phaedon cochleariae was 100% each time.

`CCC(=O)N(C)Cc1cc(-c2cnn(-c3c(Cl)cc(C(F)(C(F)(F)F)C(F)(F)F)cc3OC(F)(F)F)c2)cnc1Cl` [Ia-135]: the efficacy with Myzus persicae is 90%; with Spodoptera frugiperda, 100%; in the assay with Tetranychus urticae, 100%; in the assay on Phaedon cochleariae, 100%.

On to `O=C(NCc1cc(-c2cnn(-c3c(Cl)cc(C(F)(C(F)(F)F)C(F)(F)F)cc3C(F)F)c2)ccc1F)C1CC1` [Ia-58], for which the efficacy in the assay on Myzus persicae was determined as 70%; with Spodoptera frugiperda, 100%; in the assay on Tetranychus urticae, 100%; in the assay with Phaedon cochleariae it was 100%.

As to `CCC(=O)NCc1cccc(-c2cnn(-c3c(Cl)cc(C(F)(C(F)(F)F)C(F)(F)F)cc3OC(F)F)c2)c1F` [Ia-159], in the assay on Boophilus microplus, the “efficacy (laying of fertile eggs)” value is on record as 100%. In addition, the “efficacy (rate of extermination)” value in the assay on Ctenocephalides felis [2] and in the assay on Musca domestica was 100% throughout. Besides, the efficacy with Myzus persicae is reported as 90%; in the assay on Spodoptera frugiperda it was 100%; in the assay on Phaedon cochleariae, 100%.

Regarding `CC(=O)NCc1cc(-c2cnn(-c3c(Cl)cc(C(F)(C(F)(F)F)C(F)(F)F)cc3S(C)(=O)=O)c2)ccc1F` [Ia-11], the efficacy in the assay with Rhipicephalus sanguineus, in the assay with Myzus persicae, in the assay with Tetranychus urticae and with Phaedon cochleariae was 100% in each case. Besides, the “efficacy (laying of fertile eggs)” value in the assay on Boophilus microplus is 100%. The “efficacy (rate of extermination)” value with Ctenocephalides felis [2] and in the assay with Musca domestica was 100% each time.

Consider `CCC(=O)NCc1cc(-c2cnn(-c3c(Cl)cc(C(F)(C(F)(F)F)C(F)(F)F)cc3C(F)(F)F)c2)cnc1Cl` [Ia-138], for which the efficacy in the assay with Myzus persicae worked out at 90%; with Spodoptera frugiperda, 100%; in the assay on Tetranychus urticae, 90%; with Phaedon cochleariae it was 100%.

Take `CC(=O)NCc1c(F)ccc(-c2cnn(-c3c(Cl)cc(C(F)(C(F)(F)F)C(F)(F)F)cc3Cl)c2)c1F` [Ia-149]: the efficacy with Ctenocephalides felis [1] is recorded as 100%; in the assay with Myzus persicae, 90%; with Spodoptera frugiperda, 100%; with Tetranychus urticae, 100%; in the assay on Phaedon cochleariae it was 100%. For the same compound, the “efficacy (laying of fertile eggs)” value with Boophilus microplus stood at 100%. The “efficacy (rate of extermination)” value with Ctenocephalides felis [2] and with Musca domestica was 100% each time.

With `CC(=O)N(C)Cc1cc(-c2cnn(-c3c(Cl)cc(C(F)(C(F)(F)F)C(F)(F)F)cc3OC(F)(F)F)c2)cnc1Cl` [Ia-136], the efficacy with Ctenocephalides felis [1], in the assay with Myzus persicae, in the assay on Spodoptera frugiperda, in the assay with Tetranychus urticae and in the assay with Phaedon cochleariae was 100% each time. The “efficacy (laying of fertile eggs)” value in the assay with Boophilus microplus amounted to 100%. The “efficacy (rate of extermination)” value in the assay with Ctenocephalides felis [2] and with Musca domestica was 100% throughout.

For `CC(=O)NCc1cc(-c2cnn(-c3c(Cl)cc(C(F)(C(F)(F)F)C(F)(F)F)cc3Br)c2)ccc1Cl` [Ia-91], the entries for the “efficacy (laying of fertile eggs)” value (in [3]; in the assay on Boophilus microplus) were 80% and 100%, respectively. Further, the “efficacy (rate of extermination)” value in the assay on Ctenocephalides felis [2] and in the assay with Musca domestica was 100% each time. The efficacy in the assay with Spodoptera frugiperda, with Tetranychus urticae and in the assay on Phaedon cochleariae was 100% in each case.

As for `CC(=O)NCc1cc(-c2cnn(-c3c(Cl)cc(C(F)(C(F)(F)F)C(F)(F)F)cc3OC(F)F)c2)cnc1Cl` [Ia-156], the efficacy is reported as 90% in the assay with Myzus persicae, 100% in the assay with Spodoptera frugiperda, 100% with Tetranychus urticae and 100% in the assay on Phaedon cochleariae.

For `CCC(=O)NCc1cc(-c2cnn(-c3c(C)cc(C(F)(C(F)(F)F)C(F)(F)F)cc3Cl)c2)ccc1C` [Ia-76], the efficacy came to 100% with Ctenocephalides felis [1]; 100% in the assay on Rhipicephalus sanguineus; 90% with Myzus persicae; 100% in the assay on Spodoptera frugiperda; 100% with Tetranychus urticae; 100% in the assay with Phaedon cochleariae. Moreover, the “efficacy (laying of fertile eggs)” value in the assay on Boophilus microplus was 100%. Also, the “efficacy (rate of extermination)” value in the assay with Ctenocephalides felis [2] and in the assay on Musca domestica was 100% throughout.

Regarding `CCC(=O)N(C)Cc1cc(-c2cnn(-c3c(Cl)cc(C(F)(C(F)(F)F)C(F)(F)F)cc3Cl)c2)cnc1Cl` [Ia-134], the efficacy in the assay on Ctenocephalides felis [1], in the assay with Myzus persicae, with Spodoptera frugiperda, in the assay on Tetranychus urticae and with Phaedon cochleariae was 100% throughout. For the same compound, the “efficacy (laying of fertile eggs)” value with Boophilus microplus was found to be 100%. Moreover, the “efficacy (rate of extermination)” value with Ctenocephalides felis [2] and with Musca domestica was 100% each time.

Regarding `CC(=O)N(C)Cc1cc(-c2cnn(-c3c(Cl)cc(C(F)(C(F)(F)F)C(F)(F)F)cc3Cl)c2)ccc1Cl` [Ia-20], the efficacy is 100% in the assay with Ctenocephalides felis [1]; 80% in the assay on Rhipicephalus sanguineus; 100% in the assay on Spodoptera frugiperda; 100% in the assay with Tetranychus urticae; 100% in the assay with Phaedon cochleariae. For the same compound, the “efficacy (laying of fertile eggs)” value in the assay with Boophilus microplus amounted to 100%. In addition, the figures for the “efficacy (rate of extermination)” value in the assay on Ctenocephalides felis [2] and with Musca domestica were 100% and 90%, respectively.

`CC(=O)NCc1cccc(-c2cnn(-c3c(Cl)cc(C(F)(C(F)(F)F)C(F)(F)F)cc3OC(F)F)c2)c1F` [Ia-155]: the “efficacy (laying of fertile eggs)” value in the assay with Boophilus microplus amounted to 100%. Also, the “efficacy (rate of extermination)” value with Ctenocephalides felis [2] and in the assay on Musca domestica was 100% each time. Besides, the efficacy with Myzus persicae stood at 90%; in the assay on Spodoptera frugiperda, 100%; in the assay with Phaedon cochleariae, 100%.

As for `CC(=O)N(Cc1cc(-c2cnn(-c3c(Cl)cc(C(F)(C(F)(F)F)C(F)(F)F)cc3Cl)c2)ccc1Cl)CC1CC1` [Ia-116], the efficacy in the assay on Ctenocephalides felis [1] came to 100%; with Rhipicephalus sanguineus, 80%; with Spodoptera frugiperda, 100%; with Tetranychus urticae it was 100%; with Phaedon cochleariae it was 100%. For the same compound, in the assay on Boophilus microplus, the “efficacy (laying of fertile eggs)” value turned out to be 100%. The “efficacy (rate of extermination)” value in the assay on Ctenocephalides felis [2] and in the assay with Musca domestica was 100% throughout.

On to `CCC(=O)NCc1cc(-c2cnn(-c3c(Cl)cc(C(F)(C(F)(F)F)C(F)(F)F)cc3C(F)F)c2)cnc1Cl` [Ia-154], for which the efficacy with Myzus persicae came out at 90%; in the assay with Spodoptera frugiperda it was 100%; in the assay with Tetranychus urticae, 100%; in the assay with Phaedon cochleariae, 100%.
